System: Streptococcus pyogenes (ATCC# 97-03 14289)
Assay: Anti-microbial screen (growth inhibition, OD 570 nm)
Assay type: cell-based
Details: growth in Todd Hewitt Broth, plates read at 570 nm at 0 time and 4 hours, color corrected
Method: Streptococcus pyogenes (ATCC# 97-03 14289) was grown in Todd Hewitt Broth (THB) (Difco Laboratories #0492-17-6) overnight until reaching an optical density of (OD=0.636 @ 570 nm) by reading 0.1 ml in a 96 well microtiter plate in a Molecular Devices Thermomax. This preparation was kept frozen as stocks in 30% v/v glycerol in 1.5 ml aliquots at −70^mC. until use. Prior to experiments, […] aliquots were thawed and diluted into 50 ml 2×THB. 60 ul of this dilution was added to 92 wells of microtiter plate. To three wells THB (200 ul) was added to serve as a blank and a sterility control. Test compounds in DMSO and appropriate concentrations of DMSO were added to Growth/Solvent Controls at 0 time. Plates were read at 0 time at 570 nm in the Molecular Devices plate reader to obtain compounds correction factors for insoluble or colored compounds. Plates were read again at 4 hours.
Percent inhibition is calculated with the following formulae: [drawing 4]
Color correct=O.D. 0 hr−Blank 0 hr)−(Solvent Control 0 hr−Blank 0 hr)
% Inhibition=100−O.D. test compound 4 hr−Blank 4 hr−color correct O.D. growth/solvent control 4 hr−Blank 4 hr

Structure (SMILES)	% Inhibition [%]
CC(C)CC(=O)N1CCc2c(sc(NC(=O)c3ccccc3)c2C(=O)O)C1	98.72
CC(=O)Nc1cccc(C(=O)N2CCc3c(sc(NC(=O)c4ccccc4)c3C(=O)O)C2)c1	96.85
O=C(Nc1sc2c(c1C(=O)O)CCN(C(=O)c1cc3ccccc3s1)C2)c1ccco1	96.65
Cc1ccsc1C(=O)N1CCc2c(sc(NC(=O)c3ccccc3)c2C(=O)O)C1	93.13
Cc1ccc(C)c(CC(=O)N2CCc3c(sc(NC(=O)c4ccc(C(C)(C)C)cc4)c3C(=O)O)C2)c1	92.67
CCCc1ccc(C(=O)Nc2sc3c(c2C(=O)O)CCN(C(=O)c2cccnc2OCC)C3)cc1	92.34
CCCSc1ncccc1C(=O)N1CCc2c(sc(NC(=O)c3ccc(CC)cc3)c2C(=O)O)C1	92.01
CC(=O)Nc1cccc(C(=O)N2CCc3c(sc(NC(=O)c4ccc(C(C)(C)C)cc4)c3C(=O)O)C2)c1	92.01
CC(C)C(=O)N1CCc2c(sc(NC(=O)c3ccccc3)c2C(=O)O)C1	90.8
CC(=O)Nc1ccc(C(=O)N2CCc3c(sc(NC(=O)c4ccccc4)c3C(=O)O)C2)cc1	90.8
Cc1ccccc1C(=O)N1CCc2c(sc(NC(=O)c3ccco3)c2C(=O)O)C1	90.41
COc1cccc(C(=O)Nc2sc3c(c2C(=O)O)CCN(C(=O)c2ccc(Cl)cc2)C3)c1	90.32
CCCc1ccc(C(=O)Nc2sc3c(c2C(=O)O)CCN(C(=O)c2ccccc2SC)C3)cc1	90.02
CC(C)(C)c1ccc(C(=O)Nc2sc3c(c2C(=O)O)CCN(C(=O)c2ccccc2Cl)C3)cc1	89.72
O=C(Nc1sc2c(c1C(=O)O)CCN(C(=O)C1CCC1)C2)c1ccccc1	89.4
CCCCOc1ccc(C(=O)Nc2sc3c(c2C(=O)O)CCN(C(=O)c2cc4ccccc4s2)C3)cc1	89.4
CCCc1ccc(C(=O)Nc2sc3c(c2C(=O)O)CCN(C(=O)CCc2ccc(F)c(F)c2)C3)cc1	89.36
CCCSc1ncccc1C(=O)N1CCc2c(sc(NC(=O)c3cccc(OC)c3)c2C(=O)O)C1	88.5
CCCc1ccc(C(=O)Nc2sc3c(c2C(=O)O)CCN(C(=O)c2ccc(F)cc2F)C3)cc1	88.03
O=C(Nc1sc2c(c1C(=O)O)CCN(C(=O)c1ccc(F)c(F)c1)C2)c1ccc2ccccc2c1	87.61
Cn1cc(C(=O)N2CCc3c(sc(NC(=O)c4ccccc4)c3C(=O)O)C2)c2ccccc21	87.54

Structure (SMILES)	% Inhibition [%]
O=C(Nc1sc2c(c1C(=O)O)CCN(C(=O)c1ccc(Cl)cc1)C2)c1ccccc1	87.07
CC(C)(C)c1ccc(C(=O)Nc2sc3c(c2C(=O)O)CCN(C(=O)c2ccc(F)cc2F)C3)cc1	86.77
CCCc1ccc(C(=O)Nc2sc3c(c2C(=O)O)CCN(C(=O)c2ccc(F)c(F)c2)C3)cc1	86.71
CCCSc1ncccc1C(=O)N1CCc2c(sc(NC(=O)c3ccccc3)c2C(=O)O)C1	86.6
CCc1ccc(C(=O)Nc2sc3c(c2C(=O)O)CCN(C(=O)c2ccccc2SC)C3)cc1	86.44
CCCc1ccc(C(=O)Nc2sc3c(c2C(=O)O)CCN(C(=O)c2ccccc2Cl)C3)cc1	86.38
COc1ccc(OC)c(C(=O)N2CCc3c(sc(NC(=O)c4ccc5ccccc5c4)c3C(=O)O)C2)c1	86.36
Cc1ccc(C)c(CC(=O)N2CCc3c(sc(NC(=O)c4ccccc4)c3C(=O)O)C2)c1	86.14
CCc1ccc(C(=O)Nc2sc3c(c2C(=O)O)CCN(C(=O)c2ccccc2C(F)(F)F)C3)cc1	86.11
COc1ccc(OC)c(C(=O)N2CCc3c(sc(NC(=O)CCC4CCCC4)c3C(=O)O)C2)c1	86.05
CCCc1ccc(C(=O)Nc2sc3c(c2C(=O)O)CCN(C(=O)c2cccnc2SC)C3)cc1	86.05
O=C(Nc1sc2c(c1C(=O)O)CCN(C(=O)c1ccsc1)C2)c1ccccc1Cl	85.87
CCc1ccc(C(=O)Nc2sc3c(c2C(=O)O)CCN(C(=O)c2ccc(C)cc2C)C3)cc1	85.78
CCc1ccc(C(=O)Nc2sc3c(c2C(=O)O)CCN(C(=O)CCc2ccc(F)c(F)c2)C3)cc1	85.13
CCCc1ccc(C(=O)Nc2sc3c(c2C(=O)O)CCN(C(=O)CC(C)C)C3)cc1	84.72
CSc1ncccc1C(=O)N1CCc2c(sc(NC(=O)c3ccco3)c2C(=O)O)C1	62.35
COc1cccc(C(=O)Nc2sc3c(c2C(=O)O)CCN(C(=O)Cc2cc(C)ccc2C)C3)c1	62.32
CCc1ccc(C(=O)Nc2sc3c(c2C(=O)O)CCN(C(=O)c2cn(C)c4ccccc24)C3)cc1	62.19
Cc1ccsc1C(=O)N1CCc2c(sc(NC(=O)c3ccc(Cl)cc3)c2C(=O)O)C1	62.02
COc1ccccc1C(=O)Nc1sc2c(c1C(=O)O)CCN(C(=O)Cc1cc(C)ccc1C)C2	61.95
Cc1ccccc1C(=O)N1CCc2c(sc(NC(=O)[C@]34C[C@H]5C[C@@H](C[C@H](C5)C3)C4)c2C(=O)O)C1	61.84

Structure (SMILES)	% Inhibition [%]
CCCSc1ncccc1C(=O)N1CCc2c(sc(NC(=O)c3ccccc3OC)c2C(=O)O)C1	61.59
CCCc1ccc(C(=O)Nc2sc3c(c2C(=O)O)CCN(C(=O)CC2CCCC2)C3)cc1	61.53
O=C(CCC1CCCC1)Nc1sc2c(c1C(=O)O)CCN(C(=O)c1ccc(F)c(F)c1)C2	61.45
CC(C)(C)c1ccc(C(=O)Nc2sc3c(c2C(=O)O)CCN(C(=O)c2ccoc2)C3)cc1	61.2
CCCc1ccc(C(=O)Nc2sc3c(c2C(=O)O)CCN(C(=O)c2ccc(C)cc2C)C3)cc1	61.2
O=C(Nc1sc2c(c1C(=O)O)CCN(C(=O)c1ccc(F)c(F)c1)C2)c1ccccc1Cl	61.26
COc1cccc(C(=O)N2CCc3c(sc(NC(=O)C4CCCCC4)c3C(=O)O)C2)c1OC	61.06
CCc1ccc(C(=O)Nc2sc3c(c2C(=O)O)CCN(C(=O)c2sccc2C)C3)cc1	60.88
COc1ccccc1C(=O)Nc1sc2c(c1C(=O)O)CCN(C(=O)CCc1ccc(F)c(F)c1)C2	60.86
CCC(=O)N1CCc2c(sc(NC(=O)C(CC)c3ccccc3)c2C(=O)O)C1 (centres unmarked)	60.7
CCCc1ccc(C(=O)Nc2sc3c(c2C(=O)O)CCN(C(=O)c2cc(OC)ccc2OC)C3)cc1	60.54
CSc1ncccc1C(=O)N1CCc2c(sc(NC(=O)c3ccccc3Cl)c2C(=O)O)C1	60.53
COc1cccc(C(=O)N2CCc3c(sc(NC(=O)c4ccccc4Cl)c3C(=O)O)C2)c1OC	60.53
O=C(Nc1sc2c(c1C(=O)O)CCN(C(=O)c1ccccc1Cl)C2)c1ccco1	60.48
COc1cc(Cl)ccc1C(=O)N1CCc2c(sc(NC(=O)c3c(F)cccc3F)c2C(=O)O)C1	59.98
CC(C)(C)c1ccc(C(=O)Nc2sc3c(c2C(=O)O)CCN(C(=O)C2CCCCC2)C3)cc1	59.89
O=C(Nc1sc2c(c1C(=O)O)CCN(C(=O)C1CCC1)C2)c1ccc2ccccc2c1	59.86
O=C(Nc1sc2c(c1C(=O)O)CCN(C(=O)c1ccc(C(F)(F)F)cc1)C2)c1c(F)cccc1F	59.67
CC(C)CC(=O)N1CCc2c(sc(NC(=O)c3ccccc3Cl)c2C(=O)O)C1	59.63
CC(C)(C)c1ccc(C(=O)Nc2sc3c(c2C(=O)O)CCN(C(=O)c2ccc(C(F)(F)F)cc2)C3)cc1	59.57

Source: patent publication US20030232994A1, “Bicyclic thiophene derivatives and combinatorial libraries thereof” (priority 2001, published 2003)
